Experimental data as given in publication PMC6934184, “Selective DNA-PKcs inhibition extends the therapeutic index of localized radiotherapy and chemotherapy” (The Journal of Clinical Investigation, 2019).

Target: T1, PIK3CG (p110 gamma) (Homo sapiens, UniProt P48736)
T1 construct: purchased Thermo Fisher Scientific (Life Technologies) SelectScreen
Assay: SelectScreen Adapta
Format: biochemical
Outline: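 NU5455 was profiled across the SelectScreen Broad panel of kinase activity and binding assays. Z'LYTE reactions such as CSF1R ran at apparent Km ATP, while the Adapta CAMK1 assay used ATP listed as 10. Values are given as percent.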

T1 sequence (P48736 whole entry): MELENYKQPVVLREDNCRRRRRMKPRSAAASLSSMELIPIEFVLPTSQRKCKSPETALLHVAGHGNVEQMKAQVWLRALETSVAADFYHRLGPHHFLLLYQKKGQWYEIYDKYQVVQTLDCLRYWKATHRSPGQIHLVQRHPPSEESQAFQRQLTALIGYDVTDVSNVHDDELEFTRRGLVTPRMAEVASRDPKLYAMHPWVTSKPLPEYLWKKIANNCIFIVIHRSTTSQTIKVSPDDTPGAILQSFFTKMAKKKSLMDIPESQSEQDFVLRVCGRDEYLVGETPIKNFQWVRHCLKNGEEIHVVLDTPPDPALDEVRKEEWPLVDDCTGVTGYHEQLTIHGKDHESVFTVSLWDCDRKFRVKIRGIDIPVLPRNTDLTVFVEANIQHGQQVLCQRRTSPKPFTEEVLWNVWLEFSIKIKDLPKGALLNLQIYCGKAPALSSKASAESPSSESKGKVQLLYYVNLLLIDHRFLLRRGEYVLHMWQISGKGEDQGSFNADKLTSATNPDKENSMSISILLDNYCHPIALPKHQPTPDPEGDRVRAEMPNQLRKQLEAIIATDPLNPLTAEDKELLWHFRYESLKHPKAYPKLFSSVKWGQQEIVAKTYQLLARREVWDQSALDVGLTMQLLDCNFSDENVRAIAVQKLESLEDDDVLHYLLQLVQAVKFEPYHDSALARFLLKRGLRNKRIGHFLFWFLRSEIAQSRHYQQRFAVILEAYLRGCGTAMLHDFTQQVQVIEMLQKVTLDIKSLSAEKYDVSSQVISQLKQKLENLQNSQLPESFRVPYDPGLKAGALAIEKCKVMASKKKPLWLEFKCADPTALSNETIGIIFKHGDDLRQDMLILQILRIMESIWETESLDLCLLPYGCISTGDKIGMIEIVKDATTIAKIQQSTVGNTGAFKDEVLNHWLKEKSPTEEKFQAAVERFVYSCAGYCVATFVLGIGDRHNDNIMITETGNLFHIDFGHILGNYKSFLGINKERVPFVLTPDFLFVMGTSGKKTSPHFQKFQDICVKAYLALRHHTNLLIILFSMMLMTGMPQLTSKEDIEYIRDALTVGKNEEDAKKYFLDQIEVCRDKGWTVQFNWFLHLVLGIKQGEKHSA

With `CN(C(=O)CN1CCOCC1)c1ccc2sc3c(-c4cccc5c(=O)cc(N6CC7CCC(C6)O7)oc45)cccc3c2c1` [NU5455] the inhibition at 1 µM was 2.9%.
